Laboratory results as given in US20250195536A1, “BICYCLOOCTANE KRAS INHIBITORS” (Incyte Corporation, priority 2023, published 2025).

What was measured:
KRAS G12D = KRAS G12D (Homo sapiens, UniProt P01116, G12D); assay: GDP-GTP exchange assay (KRAS G12D); assay type: biochemical; details: bodipy-GDP/GppNHp exchange with SOS1; 4 h pre-incubation, 2 h reaction;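 note: one dagger IC50 up to 100 nM and two daggers above 100 nM up to 1 μM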
How it was run: (§1)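 IC50 came from a four-parameter fit of fluorescence loss (485/520 nm) as SOS1 (150 nM) swapped bodipy-GDP for GppNHp (500 μM) on 2.5 nM KRAS, final concentrations. Compounds were pre-incubated 4 h at r.t. (pH 7.5 Hepes, 10 mM MgCl2); exchange ran 2 h (G12D) or 3 h (G12V).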

KRAS G12V = KRAS G12V (Homo sapiens, UniProt P01116, G12V); assay: GDP-GTP exchange assay (KRAS G12V); assay type: biochemical; details: bodipy-GDP/GppNHp exchange with SOS1; 3 h incubation after GppNHp-SOS1;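 note: one dagger IC50 up to 100 nM and two daggers above 100 nM up to 1 μM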
How it was run: as §1

[1] = Caco2 assay (permeability, Papp A-B); assay type: in vitro ADME; details: human, Caco-2, absorptive direction (A-B), 50 μM test compound, 4% BSA in receiver
Method: Caco-2 cells are grown at 37° C. in an atmosphere of 5% CO2 in DMEM growth medium supplemented with 10% (v/v) fetal bovine serum, 1% (v/v) nonessential amino acids, penicillin (100 U/mL), and streptomycin (100 μg/mL). Confluent cell monolayers are subcultured every 7 days or 4 days for Caco-2 by treatment with 0.05% trypsin containing […]. Caco-2 cells are seeded in 96-well Transwell plates. The seeding density for Caco-2 cells is 14,000 cells/well. DMEM growth medium is replaced every other day after seeding. Cell monolayers are used for transport assays between 22 and 25 days for Caco-2 cells.
Cell culture medium is removed and replaced with HBSS. To measure the TEER, the HBSS is added into the donor compartment (apical side) and receiver compartment (basolateral side). The TEER is measured by using a REMS Autosampler to ensure the integrity of the cell monolayers. Caco-2 cell monolayers with TEER values 300 Ω·cm^2 are used for transport experiments. To determine the Papp in the absorptive direction (A-B), solution of test compound (50 μM) in HBSS is added to the donor compartment (apical side), while HBSS solution with 4% BSA is added to the receiver compartment (basolateral side). The apical volume was 0.075 mL, and the basolateral volume is 0.25 mL. The incubation period is 120 min. at 37° C. in an atmosphere of 5% CO2. At the end of the incubation period, samples from the donor and receiver sides are removed and an equal volume of MeCN is added for protein precipitation. The supernatants are collected after centrifugation (3000 rpm, Allegra X-14R Centrifuge from Beckman Coulter, Indianapolis, IN) for LCMS analysis. The permeability value is determined according to the equation:
Papp(cm/s)=(F*VD)/(SA*MD),
where the flux rate (F, mass/time) is calc. from the slope of cumulative amounts of compound of interest on the receiver side, SA is the surface area of the cell membrane, VD is the donor volume, and MD is the initial amount of the solution in the donor chamber.
The symbol “+” indicates a Caco-2 value of ≤0.5, “++” indicates a Caco-2 value of >0.5 but ≤1; and “+++” indicates a Caco-2 value of >1. “NA” indicates Caco-2 value not available.

Chain of KRAS G12V (P01116 1-188 isoform P01116-2 G12V): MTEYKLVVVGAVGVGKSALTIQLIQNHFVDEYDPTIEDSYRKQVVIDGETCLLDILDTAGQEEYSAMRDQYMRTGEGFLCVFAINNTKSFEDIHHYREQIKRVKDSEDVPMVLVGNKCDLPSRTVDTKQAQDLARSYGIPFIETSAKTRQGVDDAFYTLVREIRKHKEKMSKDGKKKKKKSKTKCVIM
Chain of KRAS G12D (P01116 1-188 isoform P01116-2 G12D): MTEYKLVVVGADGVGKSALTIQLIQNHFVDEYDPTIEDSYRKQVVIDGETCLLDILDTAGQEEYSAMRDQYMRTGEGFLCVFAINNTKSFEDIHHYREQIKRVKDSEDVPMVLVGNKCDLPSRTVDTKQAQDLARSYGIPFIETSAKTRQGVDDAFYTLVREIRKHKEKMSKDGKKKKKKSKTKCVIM

Row | Compound | G12D_exchange (KRAS_G12D exchange assay IC50) (KRAS G12D) | G12V_exchange (KRAS_G12V exchange assay IC50) (KRAS G12V) | Papp A→B at 120 min, 50 μM [1] [nm/s]
1 | Cc1nc2c(F)c(-c3cccc(Cl)c3Cl)c(CCC#N)cc2c2c1cc([C@H]1[C@H]3C[C@H](CN(c4cnn(C(F)F)c4)C3)N1C(=O)C1CC1)n2[C@H]1[C@H]2CN[C@@H]1C2 (atropisomer, axis not shown; (Ra)) [Example 8, 3-((Ra)-1-((1R,4R,5S)-2-azabicyclo[2.1.1]hexan-5-yl)-2-((1S,5R,7R)-6-(cyclopropanecarbonyl)-3-(1-(difluoromethyl)-1H-pyrazol-4-yl)-3,6-diazabicyclo[3.2.1]octan-7-yl)-7-(2,3-dichlorophenyl)-6-fluoro-4-methyl-1H-pyrrolo[3,2-c]quinolin-8-yl)propanenitrile] | † | † | ≤ 5
2 | Cc1nc2c(F)c(-c3cccc(Cl)c3Cl)c(CCC#N)cc2c2c1cc([C@H]1[C@H]3C[C@H](CN(c4cccnc4)C3)N1C(=O)C1CC1)n2[C@H]1[C@H]2CN[C@@H]1C2 (atropisomer, axis not shown; (Ra)) [Example 9, 3-((Ra)-1-((1R,4R,5S)-2-azabicyclo[2.1.1]hexan-5-yl)-2-((1S,5R,7R)-6-(cyclopropanecarbonyl)-3-(pyridin-3-yl)-3,6-diazabicyclo[3.2.1]octan-7-yl)-7-(2,3-dichlorophenyl)-6-fluoro-4-methyl-1H-pyrrolo[3,2-c]quinolin-8-yl)propanenitrile] | † | † | ≤ 5
3 | Cc1nc2c(F)c(-c3cccc(Cl)c3Cl)c(CCC#N)cc2c2c1cc([C@H]1[C@H]3C[C@H](CN(c4cccc(C(F)(F)F)c4)C3)N1C(=O)C1CC1)n2[C@H]1[C@H]2CN[C@@H]1C2 (atropisomer, axis not shown; (Ra)) [Example 10, 3-((Ra)-1-((1R,4R,5S)-2-azabicyclo[2.1.1]hexan-5-yl)-2-((1S,5R,7R)-6-(cyclopropanecarbonyl)-3-(3-(trifluoromethyl)phenyl)-3,6-diazabicyclo[3.2.1]octan-7-yl)-7-(2,3-dichlorophenyl)-6-fluoro-4-methyl-1H-pyrrolo[3,2-c]quinolin-8-yl)propanenitrile] | †† | † | ≤ 5
4 | Cc1nc2c(F)c(-c3cccc(Cl)c3Cl)c(CCC#N)cc2c2c1cc([C@H]1[C@H]3C[C@H](CN(c4ccc(C(F)(F)F)cc4)C3)N1C(=O)C1CC1)n2[C@H]1[C@H]2CN[C@@H]1C2 (atropisomer, axis not shown; (Ra)) [Example 12, 3-((Ra)-1-((1R,4R,5S)-2-azabicyclo[2.1.1]hexan-5-yl)-2-((1S,5R,7R)-6-(cyclopropanecarbonyl)-3-(4-(trifluoromethyl)phenyl)-3,6-diazabicyclo[3.2.1]octan-7-yl)-7-(2,3-dichlorophenyl)-6-fluoro-4-methyl-1H-pyrrolo[3,2-c]quinolin-8-yl)propanenitrile] | †† | † | ≤ 5
5 | Cc1nc2c(F)c(-c3cccc(Cl)c3Cl)c(CCC#N)cc2c2c1cc([C@H]1[C@H]3C[C@H](CN(c4cccc(F)c4)C3)N1C(=O)C1CC1)n2[C@H]1[C@H]2CN[C@@H]1C2 (atropisomer, axis not shown; (Ra)) [Example 13, 3-((Ra)-1-((1R,4R,5S)-2-azabicyclo[2.1.1]hexan-5-yl)-2-((1S,5R,7R)-6-(cyclopropanecarbonyl)-3-(3-fluorophenyl)-3,6-diazabicyclo[3.2.1]octan-7-yl)-7-(2,3-dichlorophenyl)-6-fluoro-4-methyl-1H-pyrrolo[3,2-c]quinolin-8-yl)propanenitrile] | † | † | ≤ 5
6 | Cc1ccc(N2C[C@@H]3C[C@H](C2)N(C(=O)C2CC2)[C@H]3c2cc3c(C)nc4c(F)c(-c5cccc(Cl)c5Cl)c(CCC#N)cc4c3n2[C@H]2[C@H]3CN[C@@H]2C3)cn1 (atropisomer, axis not shown; (Ra)) [Example 14, 3-((Ra)-1-((1R,4R,5S)-2-azabicyclo[2.1.1]hexan-5-yl)-2-((1S,5R,7R)-6-(cyclopropanecarbonyl)-3-(6-methylpyridin-3-yl)-3,6-diazabicyclo[3.2.1]octan-7-yl)-7-(2,3-dichlorophenyl)-6-fluoro-4-methyl-1H-pyrrolo[3,2-c]quinolin-8-yl)propanenitrile] | † | † | ≤ 5
7 | Cc1nc2c(F)c(-c3cccc(Cl)c3Cl)c(CCC#N)cc2c2c1cc([C@H]1[C@H]3C[C@H](CN(c4ccc(Cl)c(Cl)c4)C3)N1C(=O)C1CC1)n2[C@H]1[C@H]2CN[C@@H]1C2 (atropisomer, axis not shown; (Ra)) [Example 15, 3-((Ra)-1-((1R,4R,5S)-2-azabicyclo[2.1.1]hexan-5-yl)-2-((1S,5R,7R)-6-(cyclopropanecarbonyl)-3-(3,4-dichlorophenyl)-3,6-diazabicyclo[3.2.1]octan-7-yl)-7-(2,3-dichlorophenyl)-6-fluoro-4-methyl-1H-pyrrolo[3,2-c]quinolin-8-yl)propanenitrile] | ††† | †††† | ≤ 5
8 | Cc1nc2c(F)c(-c3cccc(Cl)c3Cl)c(CCC#N)cc2c2c1cc([C@H]1[C@H]3C[C@H](CN(c4cccc(C#N)c4)C3)N1C(=O)C1CC1)n2[C@H]1[C@H]2CN[C@@H]1C2 (atropisomer, axis not shown; (Ra)) [Example 17, 3-((1S,5R,7R)-7-((Ra)-1-((1R,4R,5S)-2-azabicyclo[2.1.1]hexan-5-yl)-8-(2-cyanoethyl)-7-(2,3-dichlorophenyl)-6-fluoro-4-methyl-1H-pyrrolo[3,2-c]quinolin-2-yl)-6-(cyclopropanecarbonyl)-3,6-diazabicyclo[3.2.1]octan-3-yl)benzonitrile] | †† | † | ≤ 5
9 | Cc1nc2c(F)c(-c3cccc(Cl)c3Cl)c(CCC#N)cc2c2c1cc([C@H]1[C@H]3C[C@H](CN(c4cccc(Cl)c4)C3)N1C(=O)C1CC1)n2[C@H]1[C@H]2CN[C@@H]1C2 (atropisomer, axis not shown; (Ra)) [Example 19, 3-((Ra)-1-((1R,4R,5S)-2-azabicyclo[2.1.1]hexan-5-yl)-2-((1S,5R,7R)-3-(3-chlorophenyl)-6-(cyclopropanecarbonyl)-3,6-diazabicyclo[3.2.1]octan-7-yl)-7-(2,3-dichlorophenyl)-6-fluoro-4-methyl-1H-pyrrolo[3,2-c]quinolin-8-yl)propanenitrile] | †† | † | ≤ 5
10 | Cc1nc2c(F)c(-c3cccc(Cl)c3Cl)c(CCC#N)cc2c2c1cc([C@H]1[C@H]3C[C@H](CN(c4cccc(OC(F)(F)F)c4)C3)N1C(=O)C1CC1)n2[C@H]1[C@H]2CN[C@@H]1C2 (atropisomer, axis not shown; (Ra)) [Example 20, 3-((Ra)-1-((1R,4R,5S)-2-azabicyclo[2.1.1]hexan-5-yl)-2-((1S,5R,7R)-6-(cyclopropanecarbonyl)-3-(3-(trifluoromethoxy)phenyl)-3,6-diazabicyclo[3.2.1]octan-7-yl)-7-(2,3-dichlorophenyl)-6-fluoro-4-methyl-1H-pyrrolo[3,2-c]quinolin-8-yl)propanenitrile] | †† | † | ≤ 5
